Earlier results in patent publication US20260021105A1, “METHOD FOR TREATING PSORIASIS” (Reviva Pharmaceuticals, Inc., priority 2023, published 2026).

Legend:
5-HT1A receptors = target: T1, 5-HT1A receptors (Homo sapiens, UniProt P08908); conditions: as partial agonist
T1 sequence (P08908 1-422): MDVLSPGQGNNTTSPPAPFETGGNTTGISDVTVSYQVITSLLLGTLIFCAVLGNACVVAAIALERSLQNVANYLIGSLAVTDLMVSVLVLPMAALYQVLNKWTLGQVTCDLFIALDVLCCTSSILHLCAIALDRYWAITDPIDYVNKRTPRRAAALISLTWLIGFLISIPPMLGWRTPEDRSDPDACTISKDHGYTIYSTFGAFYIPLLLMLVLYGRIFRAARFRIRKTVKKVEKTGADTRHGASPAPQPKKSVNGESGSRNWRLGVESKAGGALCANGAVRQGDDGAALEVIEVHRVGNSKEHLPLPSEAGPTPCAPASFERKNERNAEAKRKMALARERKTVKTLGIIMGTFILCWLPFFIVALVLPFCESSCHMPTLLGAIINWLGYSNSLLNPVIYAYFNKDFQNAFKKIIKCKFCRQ

5-HT2B/7 = conditions: as an antagonist
5-HT2A = 5-HT2A (Homo sapiens, UniProt P28223); conditions: as a weak partial agonist or neutral antagonist
5-HT2A, sequence (P28223 whole entry, species assumed): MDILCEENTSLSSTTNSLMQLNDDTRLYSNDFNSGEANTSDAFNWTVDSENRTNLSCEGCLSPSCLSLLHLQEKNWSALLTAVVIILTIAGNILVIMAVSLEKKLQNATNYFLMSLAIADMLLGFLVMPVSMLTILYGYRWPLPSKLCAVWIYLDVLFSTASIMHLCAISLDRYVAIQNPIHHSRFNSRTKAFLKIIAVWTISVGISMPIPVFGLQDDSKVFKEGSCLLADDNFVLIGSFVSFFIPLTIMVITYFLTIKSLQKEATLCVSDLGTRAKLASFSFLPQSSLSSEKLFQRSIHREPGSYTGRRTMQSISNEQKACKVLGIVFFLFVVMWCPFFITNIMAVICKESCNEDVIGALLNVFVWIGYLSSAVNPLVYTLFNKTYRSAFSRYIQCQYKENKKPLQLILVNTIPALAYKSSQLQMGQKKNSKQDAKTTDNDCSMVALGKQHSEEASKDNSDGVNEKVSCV

D2-4 receptors = conditions: as partial agonist
[1] = target: serotonin transporter (SERT) (Homo sapiens, UniProt P31645)
serotonin transporter (SERT), sequence (P31645 whole entry, species assumed): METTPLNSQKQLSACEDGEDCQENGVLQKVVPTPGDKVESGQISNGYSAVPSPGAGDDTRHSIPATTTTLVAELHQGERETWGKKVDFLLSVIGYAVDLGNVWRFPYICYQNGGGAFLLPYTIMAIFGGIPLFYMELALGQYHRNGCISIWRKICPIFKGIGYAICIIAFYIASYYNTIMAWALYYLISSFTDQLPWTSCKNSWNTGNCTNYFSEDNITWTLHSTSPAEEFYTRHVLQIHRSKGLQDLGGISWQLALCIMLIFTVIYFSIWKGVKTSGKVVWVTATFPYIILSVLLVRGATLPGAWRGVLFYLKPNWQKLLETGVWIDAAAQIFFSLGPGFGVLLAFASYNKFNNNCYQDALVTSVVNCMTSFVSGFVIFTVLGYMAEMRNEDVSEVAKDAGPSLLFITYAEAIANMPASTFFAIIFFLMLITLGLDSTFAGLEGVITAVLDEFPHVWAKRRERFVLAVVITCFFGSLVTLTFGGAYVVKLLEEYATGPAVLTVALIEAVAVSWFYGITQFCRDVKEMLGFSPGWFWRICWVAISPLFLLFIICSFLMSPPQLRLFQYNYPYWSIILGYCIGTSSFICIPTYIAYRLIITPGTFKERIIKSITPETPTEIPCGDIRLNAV

- binding affinity (5-HT1A receptors): high binding affinity
- binding affinity (5-HT2B/7): high binding affinity
- binding affinity (5-HT2A): high binding affinity
- binding affinity (D2-4 receptors): high binding affinity
- affinity [1]: moderate affinity
Structure (SMILES): O=C1COc2ccc(OCCCCN3CCN(c4cccc(Cl)c4Cl)CC3)cc2N1 [Brilaroxazine]
